Source: article PMC9333455, “Drug repurposing based on a quantum-inspired method versus classical fingerprinting uncovers potential antivirals against SARS-CoV-2” (PLoS Computational Biology, 2022)
pIC50: −log10 of the molar value. Where two headings read alike, the source gives them in different places.

Key:
[1] = tested on: SARS-CoV-2 (England 02/2020/407073 isolate); assay: SARS-CoV-2 replication in Vero E6 cells, plaque assay; assay type: cell-based
Vero E6 cells = assay: Cytotoxicity in uninfected Vero E6 cells, MTT assay
SARS-CoV-2 RdRP = SARS-CoV-2 RdRP (Severe acute respiratory syndrome coronavirus 2, UniProt P0DTD1); assay: SARS-CoV-2 RdRP RNA polymerization activity, in vitro fluorescent assay; assay type: biochemical; settings: for inhibition of RdRP polymerization activity (in words): dose-response, relative to DMSO
SARS-CoV-2 [2] = assay: Total and genomic viral RNA levels in cell lysates, RT-qPCR; assay type: cell-based; settings: Vero E6 and Caco-2 cells, 48 hours after infection
[3] = design: method as in PMID 25251156; settings: halted progression from phase II clinical trials; cited from earlier work
SARS-CoV-2 [4] = settings: cited from earlier work
[5] = Severe acute respiratory syndrome coronavirus 2, Vero C1008, read-out: IC50 (50% decrease in the titre of supernatant virus), MOI 0.05, 48 h
[6] = purified RdRP, 2 hours at 37°C, middle point between top and bottom plateaus, read-out: relative IC50 (RdRP polymerization activity)

Compound | pIC50 [1, 5] | inhibition of RdRP polymerization activity (in words) (SARS-CoV-2 RdRP) | pIC50 (SARS-CoV-2 RdRP; [6]) | other results
CCC(CC)COC(=O)[C@H](C)N[P@](=O)(OC[C@H]1O[C@@](C#N)(c2ccc3c(N)ncnn23)[C@H](O)[C@@H]1O)Oc1ccccc1 [Remdesivir] | 6.00 |  |  | cytotoxic effects (in words) (Vero E6 cells): did not exert observable cytotoxic effects
C/C1=C2/[N-]C([C@H](CC(N)=O)[C@@]2(C)CCC(=O)NC[C@@H](C)OP(=O)([O-])O[C@H]2[C@@H](O)[C@@H](n3cnc4cc(C)c(C)cc43)O[C@@H]2CO)[C@]2(C)N=C(/C(C)=C3N=C(/C=C4N=C1[C@@H](CCC(N)=O)C\4(C)C)[C@@H](CCC(N)=O)[C@]\3(C)CC(N)=O)[C@@H](CCC(N)=O)[C@]2(C)CC(N)=O.[CH2-][C@H]1O[C@@H](n2cnc3c(N)ncnc32)[C@@H](O)[C@@H]1O.[Co+3] [Cobamamide, cobamamide] |  | inhibited RdRP polymerization activity in a dose-dependent manner | 4.26 | pIC50 ([1]; read-out: IC50 (50% decrease in the titre of supernatant virus), MOI 0.05, 48 h): 3.39; cytotoxicity (Vero E6 cells; highest dose of 1mM): up to 20%
C/C1=C2/[N-][C@H]([C@H](CC(N)=O)[C@@]2(C)CCC(=O)NC[C@H](C)OP(=O)([O-])O[C@H]2[C@@H](O)[C@@H](n3cnc4cc(C)c(C)cc43)O[C@@H]2CO)[C@]2(C)N=C(/C(C)=C3N=C(/C=C4N=C1[C@@H](CCC(N)=O)C\4(C)C)[C@@H](CCC(N)=O)[C@]\3(C)CC(N)=O)[C@@H](CCC(N)=O)[C@]2(C)CC(N)=O.[CH3-].[Co+3] [Mecobalamin, methylcobalamin] |  | inhibited RdRP polymerization activity in a dose-dependent manner | 4.07 | 
COc1nc(N)nc2c1ncn2[C@@H]1O[C@H](COP(=O)(N[C@@H](C)C(=O)OCC(C)(C)C)Oc2cccc3ccccc23)[C@@H](O)[C@@]1(C)O (some centres unmarked) [BMS-986094] | 4.58 | inhibited RdRP polymerization activity in a dose-dependent manner |  | total and genomic viral RNA levels in cell lysates (in words) (SARS-CoV-2 [2]): consistently decreasing; concentration at which toxic to cells (Vero E6 cells; 48 h): > 100 µM; cardiac effects (in words) [3]: harmful cardiac effects; pIC50 (SARS-CoV-2 RdRP): 4.73
CC(C)OC(=O)[C@H](C)N[P@+]([O-])(OC[C@H]1O[C@@](C#N)(c2ccc3c(N)ncnn23)[C@](C)(O)[C@@H]1OC(=O)C(C)C)Oc1ccccc1 [GS-6620] |  |  |  | efficacy against SARS-CoV-2 (in words) (SARS-CoV-2 [4]): lack of efficacy against SARS-CoV-2
C/C1=C2/[N-][C@H]([C@H](CC(N)=O)[C@@]2(C)CCC(=O)NC[C@@H](C)OP(=O)([O-])O[C@H]2[C@@H](O)[C@@H](n3cnc4cc(C)c(C)cc43)O[C@@H]2CO)[C@]2(C)N=C(/C(C)=C3N=C(/C=C4N=C1[C@@H](CCC(N)=O)C\4(C)C)[C@@H](CCC(N)=O)[C@]\3(C)CC(N)=O)[C@@H](CCC(N)=O)[C@]2(C)CC(N)=O.[Co+3].[OH-] [Hydroxocobalamin, hydroxocobalamin] |  | inhibited RdRP polymerization activity in a dose-dependent manner | 4.04 | 
